Measured values taken from patent US4181657A, “2-Aminooctahydroindolo[2,3-a]quinolizines useful in treating cardiovascular disorders” (Miles Laboratories, Inc., priority 1978, dated 1980).
Counter-ions that a name gives are not always drawn.

Key:
Format in all cases: in vivo
dog heart in situ = assay: Antianginal activity: aortic-coronary sinus difference in oxygen (myocardial oxygen consumption) in anesthetized dogs; details: 1 mg/kg i.v.; for antianginal activity (conclusion in words): based upon comparison with nitroglycerin, named compounds 'particularly'
Method: Angina pectoris is a clinical condition of hypoxia that results from an imbalance in myocardial oxygen supply and demand. A drug reducing oxygen demand is useful in the treatment of angina pectoris, as has been the case with nitroglycerin and the beta-adrenergic blocking agents like propranolol (J. R. Paratt, Advan. Drug Res. 9:103-134, 1974). Accordingly,the antianginal activity of 2-substituted indoloquinolizines was evaluated by assessing their capacity to reduce oxygen consumption by the dog heart in situ. This method allows measurement of the difference in oxygen content of the arterial and venous blood.
Mongrel dogs were anesthetized with pentobarbital and cannulas inserted in the trachea and in a femoral vein for artificial respiration with room air and for injection of test compounds, respectively. Heparin was administered intravenously to prevent blood clotting. The chest was opened at the sternal midline and an additional cannula introduced in the coronary sinus. Samples of blood were obtained from the coronary sinus cannula and from the thoracic aorta by direct puncture of the vessel. Partial pressure of oxygen in the samples was determined with a blood gas analyzer. Test compounds were injected intravenously at a dose of 1 mg/kg; oxygen measurements were made before administration and at 1, 5, 10, 20, 30, 40, 50 and 60 min after administration. One animal was used per test compound. As the standard of comparison, nitroglycerin was administered to a test animal and measurements were made in a similar manner.
Differences between partial pressure values in arterial and venous blood samples were calculated for each measurement. Since coronary sinus blood is representative of the venous effluent from the heart, these differences reflect the consumption of oxygen by the myocardium. Thus, the decrease in arteriovenous oxygen difference produced by the compounds by this invention indicates a reduction in myocardial oxygen consumption.

[1] = test system: ventricular arrhythmia produced by chloroform; assay: Antiarrhythmic activity: protection from chloroform-induced ventricular arrhythmia in mice (Lawson model); details: mouse; for ED50: ip, 10 min, i.p., 10 min before chloroform, 95% confidence limits in parentheses, read-out: ED50 (95% C.L.); for mice protected of 5 / Antiarrhythmic activity, ED50 symbol (failed screening dose): 31 mg/kg i.p.; for Antiarrhythmic activity, ED50 symbol (failed screening dose): groups of 5 mice
Method: The antiarrhythmic activity of the compounds of this invention was determined in the experimental model described by J. W. Lawson (J. Pharmacol. Exper. Therap. 160:22-31, 1968). Test compounds were administered to groups of 5 mice at an intraperitoneal dose of 31 mg/kg. Ten minutes after injection each mouse was placed in a covered 300 ml glass beaker which contained cotton saturated with chloroform. The animal was observed closely and removed from the beaker immediately after respiratory arrest. The heart was quickly exposed by making an incision through the abdomen, diaphragm, thorax and pericardium for visual inspection of ventricular rate and rhythm. Ventricular contractions were counted for 30 seconds and animals with a rate not exceeding 100 beats per 30 seconds were considered protected from the ventricular arrhythmia produced by chloroform. Compounds protecting at least 3 of the 5 mice were subsequently tested at various doses and the results obtained were used to calculate the mean effective doses (ED50) and 95% confidence limits after the method of Litchfield and Wilcoxon (J. Pharmacol. Exper. Therap. 96:99-113, 1949). Table A presents the results obtained in the antiarrhythmic study.

Systolic Blood Pressure = assay: Antihypertensive activity: indirect systolic blood pressure in renal hypertensive rats; details: rat, 31 mg/kg p.o., * in table = statistically significant change from control
Method: Rats were made hypertensive by applying a figure of eight ligature to one kidney and removing the contralateral kidney two weeks later. At least four weeks after the second operation the animals were subjected to indirect systolic blood pressure measurements with an occluding cuff and pulse sensor system applied to the tail. Pressure measurements were made before and 1,2,4,6 and 8 hours after oral administration of the test compounds at a dose of 31 mg/kg. Each compound was tested in 5 or 10 rats. Statistical significance of differences between control and post treatment values was determined by Wilcoxon's signed rank test (F. Wilcoxon and R. A. Wilcox, Some Rapid Approximate Statistical Procedures, Lederle Laboratories, Pearl River, 1964).

SMILES | Arterio-Venous Difference in Oxygen Partial Pressure at 1 min (dog heart in situ) | Arterio-Venous Difference in Oxygen Partial Pressure at 5 min (dog heart in situ) | Arterio-Venous Difference in Oxygen Partial Pressure at 10 min (dog heart in situ) | Arterio-Venous Difference in Oxygen Partial Pressure at 20 min (dog heart in situ) | Arterio-Venous Difference in Oxygen Partial Pressure at 30 min (dog heart in situ) | Arterio-Venous Difference in Oxygen Partial Pressure at 40 min (dog heart in situ) | Arterio-Venous Difference in Oxygen Partial Pressure at 50 min (dog heart in situ) | Arterio-Venous Difference in Oxygen Partial Pressure at 60 min (dog heart in situ) | ED50 [1] | mice protected of 5 [1] | Change in Systolic Blood Pressure at 1 hr (Systolic Blood Pressure) | Change in Systolic Blood Pressure at 2 hr (Systolic Blood Pressure) | Change in Systolic Blood Pressure at 4 hr (Systolic Blood Pressure) | Change in Systolic Blood Pressure at 6 hr (Systolic Blood Pressure) | Change in Systolic Blood Pressure at 8 hr (Systolic Blood Pressure) | antianginal activity (conclusion in words) (dog heart in situ) | Antiarrhythmic activity, ED50 symbol (failed screening dose) [1]
O=[N+]([O-])OCC(CO[N+](=O)[O-])O[N+](=O)[O-] [Nitroglycerin, nitroglycerin, reference compound] | 13 mmHg | 21 mmHg | 20 mmHg | 20 mmHg | 21 mmHg | 21 mmHg | 18 mmHg | 20 mmHg | – | – | – | – | – | – | – | – | –
c1ccc(Cn2c3c(c4ccccc42)CCN2CCC(Nc4ccccc4)CC32)cc1 (stereo not shown) [TR2981, 2-anilino-12-benzyl-1,2,3,4,6,7,12,12b-octahydroindolo[2,3-a]quinolizine dihydrochloride] | 17 mmHg | 20 mmHg | 21 mmHg | 22 mmHg | 23 mmHg | 24 mmHg | 24 mmHg | 24 mmHg | 31 mg/kg | at least 3 of 5 mice | -2 mmHg | +5 mmHg | -5 mmHg | +7 mmHg | +16 mmHg | antianginal activity is seen | –
O=[N+]([O-])c1cccc(NC2CCN3CCc4c(n(Cc5ccccc5)c5ccccc45)C3C2)c1 (stereo not shown) [TR2998, 12-benzyl-2-(3-nitroanilino)-1,2,3,4,6,7,12,12b-octahydroindolo[2,3-a]quinolizine] | 12 mmHg | 16 mmHg | 18 mmHg | 17 mmHg | 18 mmHg | 17 mmHg | 19 mmHg | 20 mmHg | 12 mg/kg | at least 3 of 5 mice | 0 mmHg | -2 mmHg | -4 mmHg | 0 mmHg | -4 mmHg | antianginal activity is seen | –
COc1ccc(NC2CCN3CCc4c(n(Cc5ccccc5)c5ccccc45)C3C2)cc1.Cl.Cl (stereo not shown) [TR3006, 12-benzyl-2-(4-methoxyanilino)-1,2,3,4,6,7,12,12b-octahydroindolo[2,3-a]quinolizine dihydrochloride] | 30 mmHg | 44 mmHg | 45 mmHg | 42 mmHg | 37 mmHg | 38 mmHg | 36 mmHg | 36 mmHg | – | – | -28 mmHg | -20 mmHg | -18 mmHg | -12 mmHg | -14 mmHg | antianginal activity is seen | * (Did not protect 3 of 5 mice and thus was not tested further.)
Cc1cccc(NC2CCN3CCc4c(n(Cc5ccccc5)c5ccccc45)C3C2)c1.Cl.Cl (stereo not shown) [TR3008, 12-benzyl-2-(3-methylanilino)-1,2,3,4,6,7,12,12b-octahydroindolo[2,3-a]quinolizine dihydrochloride] | 20 mmHg | 23 mmHg | 22 mmHg | 23 mmHg | 25 mmHg | 25 mmHg | 24 mmHg | 25 mmHg | – | – | -27 mmHg | -24 mmHg | -17 mmHg | -17 mmHg | -20 mmHg | – | * (Did not protect 3 of 5 mice and thus was not tested further.)
Brc1cccc(NC2CCN3CCc4c(n(Cc5ccccc5)c5ccccc45)C3C2)c1.Cl (stereo not shown) [TR3014, 12-benzyl-2-(3-bromoanilino)-1,2,3,4,6,7,12,12b-octahydroindolo[2,3-a]quinolizine hydrochloride] | 17 mmHg | 18 mmHg | 26 mmHg | 25 mmHg | 26 mmHg | 26 mmHg | 26 mmHg | 24 mmHg | 32 mg/kg | at least 3 of 5 mice | +1 mmHg | -16 mmHg | -2 mmHg | 0 mmHg | -3 mmHg | antianginal activity is seen | –
